According to US8952192B2, “Phosphorylated and branched dihydroxy-pentane-dione (DPD) analogs as quorum sensing inhibitors in bacteria” (University of Maryland, College Park, priority 2011, dated 2015):
Entries after “also recorded” stand apart in the source; their conditions may differ.

Key:
P. aeruginosa = assay: DPD analogs and representative bacterial species affected (Table 1); assay type: cell-based; parameters: key: x: DPD Analogs and representative bacterial species affected
[1] = tested on: lsr expression in E. coli (lsr-lacZ reporter strains); assay: QS response (lsr expression): AI-2 dependent β-galactosidase production, Miller assay; assay type: cell-based, Escherichia coli; conditions: E. coli ZK126 pLW11 LW8 (luxS+, lsrR−), 20 μM analog
[2] = tested on: lsr expression in S. typhimurium (lsr-lacZ reporter strains); assay: as above; assay type: cell-based, Salmonella typhimurium
Description: The panel of C1-alkyl analogs was screened to identify QS modulators in the enteric bacteria E. coli and S. typhimurium. Transcription of the QS associated lsr operon, by using lsr-lacZ reporter strains (Table 2) which produce β-galactosidase in response to added AI-2 was monitored. In order to first establish if the analogs were agonists or antagonists in the QS circuit, the analogs were incubated with E. coli LW7 pLW11 and S. typhimurium MET715 (FIG. 19a-b) both of which are luxS^−. None of the analogs, except ethyl-DPD behaved as agonists for lsr expression. Previous studies investigating AI-2 antagonism in P. aeruginosa or in S. typhimurium were carried out using chemically synthesized AI-2 added to luxS^− cells. […] The same trends were obtained by adding a 1:1 ratio of enzymatically synthesized AI-2 and DPD analogs to the luxS^− strains E. coli LW7 pLW11 and S. typhimurium MET715 (FIG. 11a-b). None of the tested DPD analogs were bacteriocidal or bacteriostatic as the OD600 values of E. coli ZK126 pLW11 and S. typhimurium MET708 in the presence and absence of the analogs were similar (FIG. 10). Though the QS circuitry of the enteric organisms, E. coli and S. typhimurium are homologous they respond differently to the DPD analogs. The E. coli QS circuitry is susceptible to being silenced by a variety of DPD analogs of different shapes and sizes whereas in S. typhimurium, only a handful of DPD analogs could antagonize the action of AI-2. […] Isobutyl-DPD emerged as an effective and non-species-specific quencher; causing significant lsr expression knockdowns in both E. coli and S. typhimurium.
The QS response indicated by lsr gene expression was analyzed in pure culture studies by culturing E. coli LW7 pLW11, E. coli ZK126 pLW11 and S. typhimurium MET708, S. typhimurium MET715 overnight in LB medium supplemented with appropriate antibiotics as stated previously. These cells were then diluted into fresh LB medium (with antibiotics) and grown to an OD600 of 0.8-1.0 at 30° C., 250 rpm. Cells were then collected by centrifugation at 10,000×g for 10 minutes, and resuspended in 10 mM phosphate buffer. AI-2 (20 μM) and the respective analog (20 μM) were added to the E. coli or S. typhimurium suspension for 2 hours at 37° C. AI-2 dependent β-galactosidase production was quantified by the Miller assay.
The QS response indicated by lsr gene expression was analyzed in pure culture studies by culturing E. coli LW7 pLW11 and S. typhimurium MET715 overnight at 30° C. in LB medium supplemented with appropriate antibiotics as stated previously. These cells were then diluted into fresh LB medium (with antibiotics) and grown to an OD600 of 0.4-0.8 at 37° C., 250 rpm. Cells were then collected by centrifugation at 10,000×g for 10 min and resuspended in 10 mM phosphate buffer. AI-2 (20 μM) and the respective analog (20 μM) were added to the E. coli or S. typhimurium suspension for 2 h at 37° C. AI-2 dependent β-galactosidase production was quantified by the Miller assay.
The QS response indicated by lsr gene expression was analyzed in pure culture studies by culturing E. coli LW7 pLW11, E. coli ZK126 pLW11 and S. typhimurium MET708, S. typhimurium MET715 overnight in LB medium individually supplemented with appropriate antibiotics, as specified above. These cells were diluted into fresh LB medium (with antibiotics) and grown to an OD600 of 0.8-1.0 at 30° C., 250 rpm. Cells were collected by centrifugation at 10,000×g for 10 minutes, and resuspended in 10 mM phosphate buffer. AI-2 (20 μM) and the respective analog (20 μM) were added to the E. coli or S. typhimurium suspension for 2 hours at 37° C. AI-2 dependent β-galactosidase production was quantified by the Miller assay.

[3] = tested on: E. coli biofilms (K-12 MG1655); assay: Biofilm maturation in the presence of AI-2 analog (microfluidic flow cell, confocal microscopy, COMSTAT); assay type: cell-based
Description: The E. coli biofilms were formed using the strain K-12 MG1655 ATCC(47076). P. aeruginosa biofilms were formed using wild type strain PAO1. For both strains, overnight cultures were diluted to an OD600 of 0.25, introduced into the microfluidic channel, and incubated with no flow at 37° C. for 2 h. LB (Luria Bertani) growth medium was then continuously flowed into the device at a rate of 10 μL/hr. As needed, this medium was supplemented with various concentrations of analog or antibiotic at specified times. In studies of biofilm inhibition, after 2 hours of cell incubation, the analog diluted in LB medium is flown into the microfluidic channel for 48 hours at 10 μL/hr. In studies of effects on pre-formed biofilms, LB is introduced over the cells at 10 μL/hr for a period of 36 to 48 hours to yield stable biofilms. Then, the analog or analog-antibiotic combination was introduced for an additional 36 to 48 hours.
Biofilms were stained in situ for microscopy. They were first treated with a Live/Dead bacterial labeling kit (Invitrogen #L7012) in which two labeling components were mixed in a 1:1 ratio to a final volume of 10 μL. The dye was introduced into the channel at 10 μL/hr, the same flow rate as during biofilm growth. This treatment was then followed by 10 μL/hr of a 100 μg/mL calcofluor (Fluorescence Brightener 28, Sigma #F3543) solution for labeling polysaccharides contained in the biofilm matrix. The dyes are fixed by flowing in 3% paraformaldehyde at the same flow rate.
Labeled samples are imaged using a confocal microscope (Zeiss LSM710). For unpatterned coverslips, Z-stacks were obtained at 7 points in each microfluidic channel, each stack was comprised of 150 slices. For patterned coverslips used while measuring the optical density of the biofilms, two stacks were obtained in each channel (i.e. one at each pinhole). The image stacks were analyzed using COMSTAT, which provides morphological characteristics. Average biofilm thickness and biomass were averaged over the image stacks obtained at each of these 7 data points in the microfluidic channel. Additionally, surface reconstructions of the biofilms were created using Imaris (Bitplane) to aid in visualization of the resulting structures.

| Compound | bacterial species affected: P. aeruginosa (P. aeruginosa) | difference in lsr expression versus control in lsrR null mutant [1] | effect on native lsr expression (QS response) ([2]; S. typhimurium MET708 (luxS+), cells produce their own AI-2) | decrease of lacZ expression ([2]; S. typhimurium MET715 (LuxS−), 20 μM AI-2 + 20 μM analog) | IC50 ([2]; concentration reducing lsr expression (β-galactosidase production) to 50% in the presence of 20 μM exogenously added synthetic DPD, read-out: IC50 of analog (nM) to inhibit QS in S. typhimurium) [nM] | average biofilm biomass ([3]; 40 μM, 48 h, LB only 14 μm^3/μm^2) [μm^3/μm^2] | average biofilm thickness ([3]; 40 μM, 48 h, LB only 22 μm) [μm] | inhibition of biofilm growth ([3]; 40 μM, 48 h continuous exposure in LB) [%] | effect on biofilm thickness of increasing concentration, in words ([3]; 100 μM versus 40 μM) |
| --- | --- | --- | --- | --- | --- | --- | --- | --- | --- |
| O=C(C(=O)C(O)CO)c1ccccc1 (stereo not drawn) [Phenyl-DPD, Phenyl DPD] | x | exception |  |  |  |  |  |  |  |
| CC(C)CC(=O)C(=O)[C@@H](O)CO [Isobutyl-DPD, isobutyl-DPD] |  |  | significant knocked down; also recorded: significantly inhibited signaling | about 50% | 20000 | 3.5 | 7 | ~70 | no further inhibitory effect |
